From US5574043A, “Certain [1,2,5-thiadiazol-4-yl]-1-azabicyclo [3.2.1]octane derivatives and their pharmaceutical uses” (Novo Nordisk A/S, priority 1995, dated 1996)
Structures can show the parent of a compound that is named as a salt.

Target: muscarinic acetylcholine receptors
Assay: Inhibition of specific binding of 3H-Oxotremorine-M (OXO BINDING) in vitro, rat cortex
Set-up: species or system male Wistar rats
Details: rat cortex homogenate, 3H-Oxotremorine 1.0 nM, 30 min at 25° C., pH 7.4
Excerpt: The pharmacological properties of the compounds of the invention can be illustrated by determining their capability to inhibit the specific binding of ^3 H-Oxotremorine-M (^3 H-Oxo). Birdsdall N. J. M., Hulme E. C., and Burgen A. S. V. (1980). "The Character of Muscarinic Receptors in Different Regions of the Rat Brain". Proc. Roy. Soc. London (Series B) 207,1.
^3 H-Oxo labels muscarinic receptor in the CNS (with a preference for agonist domains of the receptors). Three different sites are labelled by ^3 H-Oxo. […] Using the present experimental conditions only the high and medium affinity sites are determined.
The inhibitory effects of compounds on ^3 H-Oxo binding reflects the affinity for muscarinic acetylcholine receptors.
All preparations are performed at 0°-4° C. unless otherwise indicated. Fresh cortex (0.1-1 g) from male Wistar rats (150-250 g) is homogenized for 5-10 s in 10 ml 20 mM Hepes pH: 7.4, with an Ultra-Turrax homogenizer. The homogenizer, is rinsed with 10 ml of buffer and the combined suspension centrifuged for 15 min at 40,000×g. The pellet is washed three times with buffer. In each step the pellet is homogenized as before in 2×10 ml of buffer and centrifuged for 10 min at 40,000×g.
The final pellet is homogenized in 20 mM Hepes pH: 7.4 (100 ml per g of original tissue) and used for binding assay. Aliquots of 0.5 ml is added 25 μl of test solution and 25 μl of ^3 H-Oxotremorine (1.0 nM, final concentration) mixed and incubated for 30 min at 25° C. Non-specific binding is determined in triplicate using arecoline (1 μg/ml, final concentration) as the test substance. After incubation samples are added 5 ml of ice-cold buffer and poured directly onto Whatman GF/C glass fibre filters under suction and immediately washed 2 times with 5 ml of ice-cold buffer. The amount of radioactivity on the filters are determined by conventional liquid scintillation counting. Specific binding is total binding minus non specific binding.
Test substances are dissolved in 10 ml water (if necessary heated on a steam bath for less than 5 minutes) at a concentration of 2.2 mg/ml.
The test value will be given as IC50 (the concentration (ng/ml) of the test substance which inhibits the specific binding of ^3 H-Oxo by 50%).
IC50 =(applied test substance concentration) [formula] where Co is specific binding in control assays and Cx is the specific binding in the test assay. (The calculations assume normal mass-action kinetics).

| SMILES | Inhibition in vitro OXO BINDING IC50 |
| --- | --- |
| CCCCCCOc1nsnc1C1=C(Cl)C2CCCN(C1)C2.Cl (centres unmarked) [Compound 94, 4-Chloro-3-(3-hexyloxy-1,2,5-thiadiazol-4-yl)-1-azabicyclo[3.3.1]non-3-ene hydrochloride] | 12 ng/mL |
| Clc1nsnc1[C@@H]1CN2CCC[C@@H]1C2 (relative stereo) [Compound 15, Exo-6-(3-chloro-1,2,5-thiadiazol-4-yl)-1-azabicyclo[3.2.1]octane] | 0.61 ng/mL |
| CCCCSc1nsnc1[C@H]1CN2CCC[C@@H]1C2 (relative stereo) [Compound 24, Endo-6-(3-butylthio-1,2,5-thiadiazol-4-yl)-1-azabicyclo[3.2.1]octane oxalate] | 0.52 ng/mL |
| CCOc1nsnc1[C@H]1CN2CCC[C@@H]1C2 (relative stereo) [Compound 20, Endo-6-(3-ethoxy-1,2,5-thiadiazol-4-yl)-1-azabicyclo[3.2.1]octane oxalate] | 11 ng/mL |
| COc1nsnc1C1=CC2CCCN(C1)C2.O=C(O)C(=O)O (centres unmarked) [Compound 96, 3-(3-Methoxy-1,2,5-thiadiazol-4-yl)-1-azabicyclo[3.3.1]non-3-ene oxalate] | 0.3 ng/mL |
| CCOc1nsnc1[C@@H]1CN2CCC[C@@H]1C2 (relative stereo) [Compound 118, Exo-6-(3-ethoxy-1,2,5-thiadiazol-4-yl)-1-azabicyclo[3.2.1]octane oxalate] | 0.35 ng/mL |
| CCCCCCSc1nsnc1[C@H]1CN2CCC[C@@H]1C2 (relative stereo) [Compound 17, Endo-6-(3-hexylthio-1,2,5-thiadiazol-4-yl)-1-azabicyclo[3.2.1]octane oxalate] | 3.2 ng/mL |
| CCCCOc1nsnc1[C@@H]1CN2CCC[C@@H]1C2 (relative stereo) [Compound 120, Exo-6-(3-butoxy-1,2,5-thiadiazol-4-yl)-1-azabicyclo[3.2.1]octane oxalate] | 0.28 ng/mL |
| CCCCCCOc1nsnc1C1=CN2CCC1CC2.O=C(O)C(=O)O [Compound 5, 3-(3-Hexyloxy-1,2,5-thiadiazol-4-yl)-1-azabicyclo[2.2.2]oct-2-ene oxalate] | 18 ng/mL |
| CCCCCCSc1nsnc1C12CCCN(CC1)C2.O=C(O)C(=O)O (centres unmarked) [Compound 68, 5-(3-Hexylthio-1,2,5-thiadiazol-4-yl)-1-azabicyclo[3.2.1]octane oxalate] | 0.69 ng/mL |
| CCCCCCOc1nsnc1[C@@H]1CN2CCC[C@@H]1C2 (relative stereo) [Compound 122, Exo-6-(3-hexyloxy-1,2,5-thiadiazol-4-yl)-1-azabicyclo[3.2.1]octane oxalate] | 0.67 ng/mL |
| CCCSc1nsnc1[C@@H]1CN2CCC[C@@H]1C2 (single isomer, unassigned) [Compound 114, (-)-Exo-6-(3-propylthio-1,2,5-thiadiazol-4-yl)-1-azabicyclo[3.2.1]octane (-) D-tartrate] | 0.15 ng/mL |
| CCOc1nsnc1C1CN2CCC1CC2.O=C(O)/C=C/C(=O)O (centres unmarked) [Compound 9, 3-(3-Ethoxy-1,2,5-thiadiazol-4-yl)-1-azabicyclo[2.2.2]octane fumarate] | 0.69 ng/mL |
| CCCCCCOc1nsnc1C1CN2CCC1CC2.O=C(O)/C=C/C(=O)O (centres unmarked) [Compound 11, 3-(3-Hexyloxy-1,2,5-thiadiazol-4-yl)-1-azabicyclo[2.2.2]octane fumarate] | 1.2 ng/mL |
| CCSc1nsnc1[C@H]1CN2CCC[C@@H]1C2 (relative stereo) [Compound 25, Endo-6-(3-ethylthio-1,2,5-thiadiazol-4-yl)-1-azabicyclo[3.2.1]octane oxalate] | 1.9 ng/mL |
| CCCCCCOc1nsnc1C1(O)CN2CCC1CC2.O=C(O)C(=O)O (centres unmarked) [Compound 7, 3-(3-Hexyloxy-1,2,5-thiadiazol-4-yl)-3-hydroxy-1-azabicyclo[2.2.2]octane oxalate] | 13 ng/mL |

| SMILES | Inhibition in vitro OXO BINDING IC50 |
| --- | --- |
| N#Cc1ccc(CSc2nsnc2[C@H]2CN3CCC[C@@H]2C3)cc1 (relative stereo) [Compound 28, Endo-6-(3-(4-cyanobenzylthio)-1,2,5-thiadiazol-4-yl)-1-azabicyclo[3.2.1]octane oxalate] | 1.9 ng/mL |
| c1csc(CCCSc2nsnc2C2CN3CCC2CC3)c1 (centres unmarked) [Compound 104, 3-(3-(3-(2-Thienyl)propylthio)-1,2,5-thiadiazol-4-yl)-1-azabicyclo[2.2.2]fumarate] | 0.85 ng/mL |
| C=CCCCCSc1nsnc1[C@H]1CN2CCC[C@@H]1C2 (relative stereo) [Compound 18, Endo-6-(3-(5-hexenylthio)-1,2,5-thiadiazol-4-yl)-1-azabicyclo[3.2.1]octane oxalate] | 7.5 ng/mL |
| CCCCS(=O)(=O)c1nsnc1[C@@H]1CN2CCC[C@@H]1C2 (relative stereo) [Compound 115, Exo-6-(3-butylsulfonyl-1,2,5-thiadiazol-4-yl)-1-azabicyclo[3.2.1]octane oxalate] | 0.50 ng/mL |
| c1ccc(CSc2nsnc2[C@H]2CN3CCC[C@H]2C3)cc1 (relative stereo) [Compound 134, Exo-6-(3-benzylthio-1,2,5-thiadiazol-4-yl)-1-azabicyclo[3.2.1]octane oxalate] | 0.47 ng/mL |
| c1ccc(CCCSc2nsnc2[C@H]2CN3CCC[C@H]2C3)cc1 (relative stereo) [Compound 83, Exo-6-(3-(3-phenylpropylthio)-1,2,5-thiadiazol-4-yl)-1-azabicyclo[3.2.1]octane oxalate] | 0.43 ng/mL |
| N#CCCCCSc1nsnc1[C@H]1CN2CCC[C@@H]1C2 (relative stereo) [Compound 92, Endo-6-(3-(4-cyanobutylthio)-1,2,5-thiadiazol-4-yl)-1-azabicyclo[3.2.1]octane oxalate] | 1.5 ng/mL |
| CCCCCOc1nsnc1[C@@H]1CN2CCC[C@@H]1C2 (relative stereo) [Compound 121, Exo-6-(3-pentyloxy-1,2,5-thiadiazol-4-yl)-1-azabicyclo[3.2.1]octane oxalate] | 0.32 ng/mL |
| CSc1nsnc1[C@H]1CN2CCC[C@H]1C2 (relative stereo) [Compound 74, Exo-6-(3-methylthio-1,2,5-thiadiazol-4-yl)-1-azabicyclo[3.2.1]octane oxalate] | 0.45 ng/mL |
| N#CCCCSc1nsnc1[C@H]1CN2CCC[C@H]1C2 (relative stereo) [Compound 81, Exo-6-(3-(3-cyanopropyithio)-1,2,5-thiadiazol-4-yl)-1-azabicyclo[3.2.1]octane oxalate] | 0.40 ng/mL |
| FC(F)(F)CCCSc1nsnc1[C@@H]1CN2CCC[C@@H]1C2 (single isomer, unassigned) [Compound 130, (+)-Exo-6-(3-(4,4,4-trifluoro-1-butylthio)-1,2,5-thiadiazol-4-yl)-1-azabicyclo[3.2.1]octane oxalate] | 0.60 ng/mL |
| N#CCCSc1nsnc1[C@H]1CN2CCC[C@@H]1C2 (relative stereo) [Compound 90, Endo-6-(3-(2-cyanoethylthio)-1,2,5-thiadiazol-4-yl)-1-azabicyclo[3.2.1]octane oxalate] | 3.3 ng/mL |
| O=C(O)C(=O)O.OC1(c2nsnc2Cl)CN2CCC1CC2 (centres unmarked) [Compound 2, 3-(3-Chloro-1,2,5-thiadiazol-4-yl)-3-hydroxy-1-azabicyclo[2.2.2]octane oxalate] | 270 ng/mL |
| CCCCCCSc1nsnc1[C@H]1CN2CCC[C@H]1C2 (relative stereo) [Compound 29, Exo-6-(3-hexylthio-1,2,5-thiadiazol-4-yl)-1-azabicyclo[3.2.1]octane oxalate] | 0.39 ng/mL |
| CCCCCCOc1nsnc1C1(OCCCCCC)CN2CCC1CC2.O=C(O)C(=O)O (centres unmarked) [Compound 6, 3-Hexyloxy-3-(3-hexyloxy-1,2,5-thiadiazol-4-yl)-1-azabicyclo[2.2.2]octane oxalate] | > 300 ng/mL |
| CCSc1nsnc1[C@H]1CN2CCC[C@H]1C2 (relative stereo) [Compound 32, Exo-6-(3-ethylthio-1,2,5-thiadiazol-4-yl)-1-azabicyclo[3.2.1]octane oxalate] | 0.45 ng/mL |
